In patent publication US20070077552A1, “High throughput screen for inhibitors of polypeptide aggregation” (priority 2005, published 2007):

Assays:
Aβ = settings: cited from earlier work
Aβ42 = Aβ42 (Homo sapiens, UniProt P05067); settings: shown previously (35, 36); cited from earlier work
[1] = target: T1, Aβ42-linker-GFP fusion protein (Homo sapiens, UniProt P05067); assay: Cell-free Aβ42-linker-GFP fluorescence assay; type: biochemical; settings: 10 μM, cell-free system
T1 construct: Wild-type Aβ42-linker-GFP was expressed in the absence (gray) or presence (black) of 10 μM tannic acid; host or cells: cell-free E. coli T7 S30 extract system for circular DNA
Method: In one embodiment, the assay uses a vector encoding Aβ42-linker-GFP in a cell-free in vitro transcription and translation system. For example, the basic protocol of the cell-free assay can involve the following steps: 1) Culture 500 ml to 1L of E. coli X1Blue strain harboring Aβ-linker-GFP fusion vector until the density of the suspension reaches O.D 0.9; 2) At O.D 0.9, spin down the cells at 4,000 g for 15 min; 3) Extract the vector using the Qiagen plasmid mega kit. (Cat. No. 12183); 4) After extraction, remove contaminants using phenol extraction; 5) Add E. coli T7 S30 extract system for circular DNA (Promega, Cat. No. L1130) into each well of a 96-well plate; 6) Add control or test substances (e.g. putative drug molecules or vectors that express inhibitory polypeptide) to each well; 7) Add Aβ-linker-GFP fusion vector, and express at RT or at 37 ° C. for 3 hrs; and 8) Measure the fluorescence emission at 510 nm (using an excitation at 490 nm). One of skill in the art will recognize that other transcription/translation systems, or a modified system, can be used. Likewise, the details of the protocol can be varied and optimized to accommodate other amyloidogenic proteins, to enhance the relative fluorescence, to accommodate the needs of the assayist, or a combination thereof.
FIG. 8 illustrates the inhibition of fluorescence of Aβ42-linker-GFP in a cell free system. […]

Chain of Aβ42 (P05067 672-713 limits assumed, species assumed): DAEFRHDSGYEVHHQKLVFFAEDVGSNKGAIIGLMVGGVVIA
T1 sequence (P05067 with tags, fused parts or gaps): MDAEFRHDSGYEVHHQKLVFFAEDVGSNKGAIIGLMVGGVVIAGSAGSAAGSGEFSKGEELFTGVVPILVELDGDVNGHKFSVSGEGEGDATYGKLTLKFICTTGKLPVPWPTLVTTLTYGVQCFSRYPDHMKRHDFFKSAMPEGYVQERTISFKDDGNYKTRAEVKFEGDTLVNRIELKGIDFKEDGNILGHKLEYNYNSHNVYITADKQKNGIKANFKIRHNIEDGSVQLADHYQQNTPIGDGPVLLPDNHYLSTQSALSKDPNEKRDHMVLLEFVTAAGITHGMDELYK

Structure (SMILES) | Aβ oligomerization (Aβ) | long-term potentiation (Aβ) | inhibition of Aβ42 aggregation (Aβ42) | fluorescence of wild-type Aβ42-linker-GFP / inhibition of aggregation [1]
CCc1nc(Nc2cccc(O)c2)nc(Nc2cccc(O)c2)n1 [RS-0466] | block Aβ oligomerization | rescue long-term potentiation | – | –
NCCc1ccc(O)c(O)c1 [dopamine] | – | – | inhibit A42 aggregation | –
O=C(OC[C@H]1O[C@@H](OC(=O)c2cc(O)c(O)c(OC(=O)c3cc(O)c(O)c(O)c3)c2)[C@H](OC(=O)c2cc(O)c(O)c(OC(=O)c3cc(O)c(O)c(O)c3)c2)[C@@H](OC(=O)c2cc(O)c(O)c(OC(=O)c3cc(O)c(O)c(O)c3)c2)[C@@H]1OC(=O)c1cc(O)c(O)c(OC(=O)c2cc(O)c(O)c(O)c2)c1)c1cc(O)c(O)c(OC(=O)c2cc(O)c(O)c(O)c2)c1 [tannic acid] | – | – | inhibit A42 aggregation | partially inhibits aggregation
